Measured values from article PMC8424217 (The Journal of Biological Chemistry, 2021).
Peptide text beside a SMILES is read from it. * marks the point of attachment. Palmitoyl = CCCCCCCCCCCCCCCC(=O)*

Legend:
[1] = Circular dichroism; format: physicochemical; conditions: peptide 0.2 mg mL^−1, 20 °C
Protocol: Circular dichroism (CD) analyses were performed in a JASCO J-815 (JAPAN Spectroscopy & Chromatography Technology) spectropolarimeter coupled to a temperature controller Peltier. Samples were dissolved at 0.2 mg mL^−1 in either water, 0.5 mg mL^−1 DPC (dodecylphophocholine), 0.1 mg mL^−1 SDS (sodium dodecyl sulfate), or TFE (2,2,2-trifluoroethanol) aqueous solutions at concentrations of 20%, 50%, and 80%. The CD spectra were recorded in the measured range of 200–250 nm using a scan speed of 50 nm min^−1, and the baseline was corrected by subtraction of the solvent spectrum. The temperature was set to 20 °C.

[2] = target: T1, hUT (Homo sapiens, UniProt Q9UKP6); assay: Antagonism of hUII- or URP-mediated G12 activation, BRET, HEK 293-hUT cells; format: cell-based; parameters: expressed in transfected cells; conditions: pepducin 10^−5 M for 15 min, then hUII or URP, at least three experiments in triplicate
T1 sequence (Q9UKP6 1-389): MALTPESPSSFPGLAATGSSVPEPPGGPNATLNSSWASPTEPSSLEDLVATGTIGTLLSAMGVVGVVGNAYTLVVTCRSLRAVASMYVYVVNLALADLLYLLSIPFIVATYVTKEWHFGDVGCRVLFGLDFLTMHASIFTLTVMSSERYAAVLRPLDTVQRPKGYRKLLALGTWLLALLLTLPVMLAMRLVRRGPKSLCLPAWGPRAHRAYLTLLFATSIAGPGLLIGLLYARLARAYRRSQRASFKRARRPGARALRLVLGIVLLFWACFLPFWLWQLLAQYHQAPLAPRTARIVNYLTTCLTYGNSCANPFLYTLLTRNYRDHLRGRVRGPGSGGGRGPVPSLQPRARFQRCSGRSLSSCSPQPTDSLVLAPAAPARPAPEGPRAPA
Protocol: Figure 10 Effect of hUT-pepducins on hUT-mediated G12activation. […] Each curve represents mean ± SEM of at least three independent concentration–response experiments performed in triplicate.
HEK 293-hUT cells were grown in DMEM culture media supplemented with 10% foetal bovine serum, HEPES, sodium pyruvate, and G418 (200 μg mL^−1). Passages were performed when cells reached 80% of confluency. Cells were initially plated in 96-well plates at a density of 10,000 cells/well. […] Then, to evaluate Gq and G12 activation, 10 μl of a 1/20 dilution (diluted before use) of coelenterazine 400A (stock at 1 mM in ethanol) in Kreb's buffer and 10 μl of the 10× appropriate concentration of peptide were added, and the luminescence was evaluated with an Infinite M1000 PRO. […] Readings were performed after 5 min using an Infinite M1000 PRO. […] BRET ratio was determined by calculating the ratio of the light emitted by GFP10 over the light emitted by the RlucII.

[3] = tested on: HEK 293 cells; assay: EGFR transactivation (EGFR-GFP internalization, confocal microscopy), untransfected/mock HEK 293 cells; format: cell-based; conditions: HEK 293, 30 min
Protocol: Figure 7 UT-pepducins-mediated transactivation of EGFR following hUT activation. […] EGFR internalization, following hUT stimulation with various ligands for 30 min, was visualized using confocal microscopy. The images shown are from representative experiments repeated at least three times.
HEK 293 and HEK 293-hUT cells, transiently transfected with cDNA encoding fluorescently labeled EGFR (EGFR-GFP) (2 μg), were plated onto 35-mm glass-bottomed culture dishes (MatTek Corp). Following stimulation, cells were washed once with PBS and fixed in 4% paraformaldehyde for 15 min. To study the involvement of Gq in EGFR internalization, cells were treated with YM254890 (100 nM) for 1h prior peptide treatments. […] EGFR-GFP internalization was visualized using a combination of excitation (488 nm) and emission filters (499 and 520 nm). […]
endogenously expressed hUT activation in untransfected HEK 293 cells.HEK 293 expressing low level of wild type hUT and transfected […]
using confocal microscopy. The image shown are from representative experiments repeated at least three times. Arrows indicate cellular aggregates representing EGFR internalization.
(1 picture or pasted object on this page, not shown here)

Row | Structure (SMILES) | CD conformation in SDS ([1]; 0.1 mg mL^−1 SDS) | CD conformation in DPC ([1]; 0.5 mg mL^−1 DPC) | CD conformation in TFE ([1]; TFE 80%) | CD conformation in water ([1]; water) | hUII- and URP-mediated G12 activation after pepducin pretreatment [2] | EGFR internalization in untransfected/mock-transfected cells [3]
1 | CCCCCCCCCCCCCCCC(=O)N[C@@H](Cc1c[nH]c2ccccc12)C(=O)N[C@@H](CC(C)C)C(=O)N[C@@H](CO)C(=O)N[C@@H](CCC(N)=O)C(=O)N[C@@H](CCCNC(=N)N)C(=O)N[C@@H](C)C(=O)N[C@@H](CO)C(=O)N[C@@H](Cc1ccccc1)C(=O)N[C@@H](CCCCN)C(=O)N[C@@H](CCCNC(=N)N)C(=O)N[C@@H](C)C(=O)N[C@@H](CCCNC(=N)N)C(=O)N[C@@H](CCCNC(=N)N)C(N)=O [[Trp^1, Leu^2]hUT-Pep3] (Palmitoyl-WLSQRASFKRARR-NH2) | β-sheet conformation (lower peak at 216 nm) | less structured α-helix conformation | fold as an α-helix (dark green, TFE 80%, lower peaks at 205 and 216 nm) | nonstructured shape (random coil) | completely abolished hUII- and URP-associated G12 stimulation | –
2 | CC(C)[C@H](NC(=O)[C@@H]1CSSC[C@H](NC(=O)[C@H](CC(=O)O)NC(=O)[C@@H]2CCCN2C(=O)[C@@H](NC(=O)[C@@H](N)CCC(=O)O)[C@@H](C)O)C(=O)N[C@@H](Cc2ccccc2)C(=O)N[C@@H](Cc2c[nH]c3ccccc23)C(=O)N[C@@H](CCCCN)C(=O)N[C@@H](Cc2ccc(O)cc2)C(=O)N1)C(=O)O [hUII, urotensin II, reference compound] | – | – | – | – | – | limited EGFR internalization can be observed in untransfected HEK 293 cells
3 | CCCCCCCCCCCCCCCC(=O)N[C@@H](CCCNC(=N)N)C(=O)N1CCC[C@H]1C(=O)N[C@@H](CC(C)C)C(=O)N[C@@H](CC(=O)O)C(=O)N[C@H](C(=O)N[C@H](C(=O)N[C@@H](CCC(N)=O)C(=O)N[C@@H](CCCNC(=N)N)C(=O)N1CCC[C@H]1C(=O)N[C@@H](CCCCN)C(=O)NCC(=O)N[C@@H](Cc1ccc(O)cc1)C(N)=O)C(C)C)[C@@H](C)O [hUT-Pep2] (Palmitoyl-RPLDTVQRPKGY-NH2) | – | – | – | – | completely abolished hUII- and URP-associated G12 stimulation | –
